This is an account of results in patent publication US9796687B2, “S-substituted quinazolines and their therapeutic applications for the treatment of diseases mediated by PDE7” (Consejo Superior De Investigaciones Cientificas (CSIC), priority 2016, dated 2017).

Like-named read-outs stand apart in the source and are kept apart here.

Data set [1] concerns the target PDE7A1 (Homo sapiens (Human), UniProt Q13946). Put plainly: PDE7 inhibition, commercial phosphodiesterase activity kit ([3H]cAMP, SPA). Type of data set: biochemical. The protocol: Measurement of PDE7 inhibition was carried out using a commercial phosphodiesterase activity measurement kit.
Some of the compounds of the present invention (including those synthesised in Example 1) were evaluated. For this purpose, said compounds were incubated (in a range of concentrations from 0.1 nM to 100 μM) in the presence of 0.02 U/well of PDE7A1 and 0.05 μCi of [^3H] cAMP, for 20 minutes at 30° C. in the assay buffer supplied with the kit (total volume per well=100 μL). Once this time had elapsed, 50 μL of a 20 mg/mL suspension of SPA glass silicate microspheres were added and kept in agitation at ambient temperature for 60 minutes. After allowing the plate to rest for 20 minutes, the radioactivity was tested in a scintillation detector. All the assays included two points in the absence of PDE7A1 (blank/negative control) and two points with PDE7A1 in the absence of inhibitors (positive control).
The data were adjusted with a software program using non-linear adjustment.

Data set [2] can be described thus: in vitro. Conditions: PAMPA, pH 7.4. In general terms: The PAMPA barrier holds no transporters, so it reflects passive diffusion.
Data set [3] in a line: Parallel artificial membrane permeability assay (PAMPA) for CNS / blood-brain barrier permeability. Conditions: pH 7.4.
In data set [4] the target is hERG channel (Homo sapiens (Human), UniProt Q12809). Put plainly: Toxicity on the cardiac hERG channel, FluxOR thallium fluorescence assay in HEK293 cells. It is filed as cell-based. The source says:
The hERG potassium channel contributes in the final phase of the action potential, bringing the cell to its resting state. If a drug suppresses the activity of the channel, it can produce a prolongation of the […], known as “long QT syndrome”, resulting in a fatal ventricular arrhythmia.
To characterise the behaviour of the hERG potassium channel in the presence of the compounds of the present invention, use was made of an assay based on a fluorescent probe (FluxOR®, Life Technologies) with high affinity for thallium, an indicator of the activity of the potassium ion channel. When the potassium channels open in response to a stimulus, the influx of thallium from the external environment is detected by the probe. The fluorescent signal is therefore proportional to the number of open potassium channels in the cell. The FluxOR® is added in ester form without fluorescent emission capacity, thus preventing the emission of fluorescence outside the cell. When it enters the cell, the cytosol esterases activate the FluxOR®, so that it is capable of binding the thallium that passes into the cytoplasm through the hERG channel and of emitting fluorescence.
Black plates containing 96 wells treated with poly-D-lysine were seeded with HEK293 cells (deposit number ATCC CRL-1573) modified to stably express the hERG channel. […] After one hour of incubation of the fluorochrome with the cells at ambient temperature, the plates were washed with 50 μL of assay buffer. Subsequently, 20 μL of the compounds to be studied were added at a dilution of 1:200 (2 μL of compound/400 μL of assay buffer), in triplicate, on 12-point curves (1:2 dilutions of the compound in DMSO). […]. After 30 minutes of incubation, the plates were read in a FLIPR TETRA®, which added 5 μL of stimulus buffer (Tl2SO4+K2SO4). […]
On the technique in general: hERG is a cardiac potassium channel; its block is linked to QT prolongation.

The nature of data set [5]: Pharmacokinetic studies in mice: exposure in plasma and brain. Conditions: for Kp / Tmax / Cmax: C57BL/6, mouse; for Kp: brain; for Tmax: plasma and brain; for Cmax: plasma; for levels in plasma and brain 2 hours after administration (elimination): intraperitoneal or oral administration.
The target in data set [6] is PDE4D3 (Homo sapiens (Human), UniProt Q08499). Description: PDE4D3 inhibition. It is filed as biochemical.
In data set [7] the target is PDE4B2 (Homo sapiens (Human), UniProt Q07343). Description: PDE4B2 inhibition. Type of data set: biochemical.
The nature of data set [8]: in vivo. Conditions: C57BL/6, mouse.
Setting [9] is: mice, intraperitoneal administration, 10 mg/kg.
The mark [10] stands for this setting: mice, oral administration, 10 mg/kg.
The mark [11] stands for this setting: mice, oral administration, 10 mg/kg, Tmax 0.5 h.

Chain of hERG channel (Q12809 whole entry): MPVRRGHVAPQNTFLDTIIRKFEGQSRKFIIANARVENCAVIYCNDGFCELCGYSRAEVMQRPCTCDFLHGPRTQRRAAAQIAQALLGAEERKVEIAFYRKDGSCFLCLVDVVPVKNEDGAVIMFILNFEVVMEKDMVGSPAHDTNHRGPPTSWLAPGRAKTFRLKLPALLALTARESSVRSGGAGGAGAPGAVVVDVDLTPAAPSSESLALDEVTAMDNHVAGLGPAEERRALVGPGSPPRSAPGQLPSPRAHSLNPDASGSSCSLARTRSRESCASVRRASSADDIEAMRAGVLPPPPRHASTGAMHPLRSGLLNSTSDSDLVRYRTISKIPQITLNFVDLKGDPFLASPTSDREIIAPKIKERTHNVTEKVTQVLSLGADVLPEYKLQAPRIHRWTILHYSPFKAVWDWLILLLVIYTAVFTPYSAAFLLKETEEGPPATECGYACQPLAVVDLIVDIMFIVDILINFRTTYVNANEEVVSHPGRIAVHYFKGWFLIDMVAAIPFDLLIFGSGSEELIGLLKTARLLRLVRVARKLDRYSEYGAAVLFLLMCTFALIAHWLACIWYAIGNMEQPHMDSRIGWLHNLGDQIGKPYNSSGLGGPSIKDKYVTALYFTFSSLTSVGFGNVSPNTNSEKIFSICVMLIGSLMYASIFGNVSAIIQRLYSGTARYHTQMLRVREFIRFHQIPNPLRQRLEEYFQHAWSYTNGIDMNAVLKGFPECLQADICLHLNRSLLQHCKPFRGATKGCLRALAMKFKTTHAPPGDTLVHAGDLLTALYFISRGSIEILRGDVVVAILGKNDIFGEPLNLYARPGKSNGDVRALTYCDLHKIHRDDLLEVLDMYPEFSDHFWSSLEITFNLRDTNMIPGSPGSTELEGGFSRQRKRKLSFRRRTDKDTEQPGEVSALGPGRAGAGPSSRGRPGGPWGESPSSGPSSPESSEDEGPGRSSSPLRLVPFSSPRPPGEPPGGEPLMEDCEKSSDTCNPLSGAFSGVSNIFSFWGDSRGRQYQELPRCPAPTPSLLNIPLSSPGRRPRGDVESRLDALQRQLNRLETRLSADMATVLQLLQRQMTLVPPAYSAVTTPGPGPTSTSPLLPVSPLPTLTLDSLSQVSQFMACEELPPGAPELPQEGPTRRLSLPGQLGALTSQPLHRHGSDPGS
Chain of PDE7A1 (Q13946 whole entry, species assumed): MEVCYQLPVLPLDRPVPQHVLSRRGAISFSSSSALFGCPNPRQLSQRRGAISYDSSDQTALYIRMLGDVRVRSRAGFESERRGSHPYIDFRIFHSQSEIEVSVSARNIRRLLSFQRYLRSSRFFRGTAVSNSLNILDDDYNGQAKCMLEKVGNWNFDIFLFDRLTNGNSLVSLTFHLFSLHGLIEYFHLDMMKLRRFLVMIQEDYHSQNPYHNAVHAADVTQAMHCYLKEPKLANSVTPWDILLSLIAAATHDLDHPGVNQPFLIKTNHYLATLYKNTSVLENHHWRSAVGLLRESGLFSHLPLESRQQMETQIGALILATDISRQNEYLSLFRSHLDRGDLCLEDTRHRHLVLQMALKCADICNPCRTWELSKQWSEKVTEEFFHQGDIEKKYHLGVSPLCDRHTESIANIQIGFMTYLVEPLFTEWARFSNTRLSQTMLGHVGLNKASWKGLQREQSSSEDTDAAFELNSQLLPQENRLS
Chain of PDE4B2 (Q07343 other isoform, or with tags, fused parts or gaps, species assumed): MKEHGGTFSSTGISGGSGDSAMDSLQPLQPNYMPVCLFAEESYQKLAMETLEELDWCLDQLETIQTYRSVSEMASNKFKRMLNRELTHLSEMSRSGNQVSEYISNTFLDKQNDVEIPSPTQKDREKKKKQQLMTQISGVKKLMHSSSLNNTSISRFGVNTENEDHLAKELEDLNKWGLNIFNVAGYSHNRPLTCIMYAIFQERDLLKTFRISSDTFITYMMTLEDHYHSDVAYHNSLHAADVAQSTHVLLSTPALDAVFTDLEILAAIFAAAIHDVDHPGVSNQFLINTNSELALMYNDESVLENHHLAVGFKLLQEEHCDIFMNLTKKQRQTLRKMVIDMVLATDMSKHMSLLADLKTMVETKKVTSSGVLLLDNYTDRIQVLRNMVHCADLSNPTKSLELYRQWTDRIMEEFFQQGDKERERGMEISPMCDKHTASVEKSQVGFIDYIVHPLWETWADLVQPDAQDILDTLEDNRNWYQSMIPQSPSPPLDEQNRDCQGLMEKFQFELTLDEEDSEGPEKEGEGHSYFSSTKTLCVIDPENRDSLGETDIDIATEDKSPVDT
Chain of PDE4D3 (Q08499 other isoform, or with tags, fused parts or gaps): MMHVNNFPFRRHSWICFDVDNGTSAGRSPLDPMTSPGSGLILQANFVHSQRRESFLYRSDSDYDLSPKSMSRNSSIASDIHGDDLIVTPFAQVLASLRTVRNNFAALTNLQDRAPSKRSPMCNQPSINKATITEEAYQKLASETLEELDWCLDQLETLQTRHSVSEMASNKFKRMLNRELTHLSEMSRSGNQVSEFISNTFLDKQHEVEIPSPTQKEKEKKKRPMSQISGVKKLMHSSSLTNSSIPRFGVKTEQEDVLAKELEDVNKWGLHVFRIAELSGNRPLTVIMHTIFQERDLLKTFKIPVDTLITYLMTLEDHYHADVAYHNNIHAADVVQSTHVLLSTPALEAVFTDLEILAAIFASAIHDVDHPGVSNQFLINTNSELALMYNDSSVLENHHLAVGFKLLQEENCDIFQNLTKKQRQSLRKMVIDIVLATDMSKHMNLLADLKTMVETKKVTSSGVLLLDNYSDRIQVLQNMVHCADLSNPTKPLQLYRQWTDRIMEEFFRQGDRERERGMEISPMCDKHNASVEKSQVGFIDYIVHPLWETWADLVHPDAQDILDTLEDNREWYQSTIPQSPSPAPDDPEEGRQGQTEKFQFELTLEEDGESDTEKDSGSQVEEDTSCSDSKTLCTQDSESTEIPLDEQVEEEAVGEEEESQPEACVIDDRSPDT

Take `O=c1c2ccccc2nc(SCc2ccc3ccccc3c2)n1-c1ccccc1` [Compound 28, 3-Phenyl-2-(2-naphthylmethylthio)-4-oxo-3,4-dihydroquinazoline]: the IC50 in data set [1] (read-out: PDE7A IC50) came to 0.09 µM.

As for `Cc1cccc2c(=O)n(-c3c(F)cccc3F)c(SCC3CC3)nc12` [Compound 15, 2-Cyclopropylmethylthio-3-(2,6-difluorophenyl)-8-methyl-4-oxo-3,4-dihydroquinazoline], the IC50 in data set [1] (read-out: PDE7A IC50) stood at 4.56 µM. Besides, the Papp – broadly, the rate of passage across a membrane or cell layer, normalised by area and donor concentration – at 2.5 h in data set [2] is 1.3 ± 0.9 ×10⁻⁶ cm/s.

As to `O=c1c2ccccc2nc(SCc2ccccn2)n1-c1ccccc1` [Compound 23, 3-Phenyl-2-(2-pyridylmethylthio)-4-oxo-3,4-dihydroquinazoline], in data set [1] (read-out: PDE7A IC50), the IC50 was determined as 0.8 µM. For the same compound, the Papp at 2.5 h in data set [2] came to 12.4 ± 2.2 ×10⁻⁶ cm/s.

With `O=c1c2ccccc2nc(SCc2ccncc2)n1-c1ccccc1` [Compound 27, 3-Phenyl-2-(4-pyridylmethylthio)-4-oxo-3,4-dihydroquinazoline], the IC50 in data set [1] (read-out: PDE7A IC50) is 2.6 µM. This compound returned a Papp at 2.5 h in data set [2] of 15.9 ± 1.3 ×10⁻⁶ cm/s.

In the case of `Cc1ccccc1-n1c(SCc2cccnc2)nc2ccccc2c1=O` [Compound 26, 3-(2-Methylphenyl)-2-(3-pyridylmethylthio)-4-oxo-3,4-dihydroquinazoline], the IC50 in data set [1] (read-out: PDE7A IC50) is 0.12 µM. The Papp at 2.5 h in data set [2] was found to be 20.1 ± 0.1 ×10⁻⁶ cm/s.

Turning to `O=c1c2ccccc2nc(SCc2cccnc2)n1-c1ccccc1` [Compound 24, 3-Phenyl-2-(3-pyridylmethylthio)-4-oxo-3,4-dihydroquinazoline], the IC50 in data set [1] (read-out: PDE7A IC50) was 0.7 µM. The same compound returned a Papp at 2.5 h in data set [2] of 18.6 ± 1.7 ×10⁻⁶ cm/s.

On to `CC(C)(C)CSc1nc2c(Cl)cccc2c(=O)n1-c1ccccc1` [Compound 11, 8-Chloro-3-phenyl-2-neopentylthio-4-oxo-3,4-dihydroquinazoline], for which the IC50 in data set [1] (read-out: PDE7A IC50) was found to be 1.2 µM.

In data set [3], `CN1C(C(=O)Nc2ccccn2)=C(O)c2ccccc2S1(=O)=O` [Piroxicam, piroxicam] registered a Papp at 2.5 h of 0.2 ± 0.1 ×10⁻⁶ cm/s.

`S=c1[nH]c2ccccc2c(=S)n1-c1ccccc1` [TC3.6, 3-Phenyl-2,4-dithioxo-1,2,3,4-tetrahydroquinazoline] gave an IC50 in data set [4] (stimulated the opening of the potassium channel, HEK293 hERG, FluxOR) of 5.19 µM. Also, the Kp in data set [5] (ip, 10 mg/kg) is 0.51; in data set [5] (other: intraperitoneal and oral, 10 mg/kg) it was under 1; in data set [5] (po, 10 mg/kg) it was 0.43. The Tmax – broadly, the time from dosing to the highest level – was determined as 15 min in data set [5] (ip, 10 mg/kg) and 30 min in data set [5] (po, 10 mg/kg). Moreover, the Cmax (usually the maximum level reached in the sampled fluid or tissue) in data set [5] (ip, 10 mg/kg) was 6790 nM; in data set [5] (po, 10 mg/kg), 860 nM. Moreover, the “Cmax/PDE7 IC50 ratio, brain” value is 3.33 in data set [5] (setting [9]) and 0.36 in data set [5] (setting [10]). Moreover, the “Cmax/PDE7 IC50 ratio, plasma” value was 6.53 in data set [5] (setting [9]) and 0.83 in data set [5] (setting [10]). In addition, the “levels in plasma and brain 2 hours after administration (elimination)” value in data set [5] (mice, 10 mg/kg) is “almost eliminated”. The “Brain Cmax” value was 370 nM in data set [5] (setting [11]) and 3460 nM in data set [5] (mouse, in vivo).

As for `O=c1c2ccccc2nc(SCC2CCCCC2)n1-c1ccccc1Br` [Compound 2, 3-(2-Bromophenyl)-2-cyclohexylmethylthio-4-oxo-3,4-dihydroquinazoline], the IC50 in data set [1] (read-out: PDE7A IC50) came to 2.11 µM.

With `CC(C)(C)CSc1nc2ccccc2c(=O)n1-c1ccccc1` [Compound 5, 3-Phenyl-2-neopentylthio-4-oxo-3,4-dihydroquinazoline], the IC50 was 0.1 µM in data set [1] (Table 3, read-out: PDE inhibitory activity PDE7A CI50); 0.1 µM in data set [1] (read-out: PDE7A IC50); over 30 µM in data set [4]. Besides, the inhibition (in general, the share of the control response that was lost under treatment) at 10 µM in data set [6] came to 37%; in data set [7] it was 29%. Further, in data set [4] (deduced from hERG data), the cardiotoxic potential entry was “did not have any cardiotoxic potential”. In addition, the Kp in data set [8] was over 1; in data set [8] (ip, 10 mg/kg) it was 2.45; in data set [8] (po, 10 mg/kg) it was 1.19. The Cmax in data set [8] (ip, 10 mg/kg) was determined as 2310 nM; in data set [8] (po, 10 mg/kg), 1380 nM. For the same compound, the Tmax in data set [8] (ip, 10 mg/kg) is 15 min; in data set [8] (po, 10 mg/kg), 30 min. Besides, the “Cmax/PDE7 IC50 ratio, brain” value in data set [5] (setting [9]) was found to be 56.5; in data set [5] (setting [10]), 16.4. The figures for the “Cmax/PDE7 IC50 ratio, plasma” value in data set [5] (setting [9]) and in data set [5] (setting [10]) were 23.1 and 13.8, respectively. For the same compound, the “Brain Cmax” value stood at 5650 nM in data set [5] (mice, intraperitoneal administration, 10 mg/kg, Tmax 0.25 h) and 1640 nM in data set [5] (setting [11]). The “levels in plasma and brain 2 hours after administration (elimination)” value in data set [5] (mice, 10 mg/kg) is recorded as “still considerable levels”.

As to `O=c1c2ccccc2nc(SCc2ccccc2)n1-c1ccccc1` [Compound 21, 2-Benzylthio-3-phenyl-4-oxo-3,4-dihydroquinazoline], in data set [1] (read-out: PDE7A IC50), the IC50 turned out to be 0.6 µM. Also, the inhibition at 10 µM in data set [6] was 38%; in data set [7], 28%.

Take `CCSc1nc2ccccc2c(=O)n1-c1ccccc1` [Compound 16, 2-Ethylthio-3-phenyl-4-oxo-3,4-dihydroquinazoline]: the IC50 in data set [1] (read-out: PDE7A IC50) is 6.9 µM. In data set [2], the Papp at 2.5 h amounted to 7.9 ± 1.2 ×10⁻⁶ cm/s.

`CCSc1nc2ccccc2c(=O)n1-c1c(F)cccc1F` [Compound 17, 2-Ethylthio-3-(2,6-difluorophenyl)-4-oxo-3,4-dihydroquinazoline]: the IC50 in data set [1] (read-out: PDE7A IC50) turned out to be 6.99 µM. For the same compound, the Papp at 2.5 h in data set [2] came out at 4.8 ± 0.6 ×10⁻⁶ cm/s.

For `O=c1[nH]c(SCc2cccnc2)nc2c(Cl)cccc12` [Compound 25, 8-Chloro-2-(3-pyridylmethylthio)-4-oxo-3,4-dihydroquinazoline], in data set [1] (read-out: PDE7A IC50), the IC50 was 0.54 µM. In data set [2], the Papp at 2.5 h was found to be 12.1 ± 3.9 ×10⁻⁶ cm/s.

As to `Cc1cccc2c(=O)n(-c3c(F)cccc3F)c(SCC(C)(C)C)nc12` [Compound 6, 3-(2,6-Difluorophenyl)-8-methyl-2-neopentylthio-4-oxo-3,4-dihydroquinazoline], the IC50 in data set [1] (read-out: PDE7A IC50) stood at 8.67 µM.

As for `O=c1c2ccccc2nc(SCC2CC2)n1-c1ccccc1Br` [Compound 14, 3-(2-Bromophenyl)-2-cyclopropylmethylthio-4-oxo-3,4-dihydroquinazoline], the IC50 in data set [1] (read-out: PDE7A IC50) was found to be 9.44 µM. The compound further yielded a Papp at 2.5 h in data set [2] of 1.9 ± 0.3 ×10⁻⁶ cm/s.

Turning to `CCSc1nc2c(Cl)cccc2c(=O)n1-c1c(F)cccc1F` [Compound 18, 8-Chloro-2-ethylthio-3-(2,6-difluorophenyl)-4-oxo-3,4-dihydroquinazoline], the IC50 in data set [1] (read-out: PDE7A IC50) amounted to 2.44 µM.

On to `Cc1ccccc1-n1c(SCC(C)(C)C)nc2ccccc2c1=O` [Compound 13, 3-(2-Methylphenyl)-2-neopentylthio-4-oxo-3,4-dihydroquinazoline], for which the IC50 in data set [1] (read-out: PDE7A IC50) was determined as 1.85 µM. The compound also returned a Papp at 2.5 h in data set [2] of 3.9 ± 0.7 ×10⁻⁶ cm/s.

As for `O=c1c2ccccc2nc(SCC2CCCCC2)n1-c1ccccc1` [Compound 1, 2-Cyclohexylmethylthio-3-phenyl-4-oxo-3,4-dihydroquinazoline], the IC50 in data set [1] (read-out: PDE7A IC50) stood at 0.2 µM. Besides, the values for the inhibition at 10 µM in data set [6] and in data set [7] were 49% and 18%, respectively.
